Where a name gives a salt, the structure may show the parent alone. Read-outs that look alike come from different tables or passages of the source.
Key:
[1] = tested on: tobacco hornworms (Manducca sexta); design: species or system Manduca sexta; settings: in vivo
[2] = tested on: Manducca eggs; experiment: Ovicidal assay; format: in vivo, Manduca sexta; settings: 3% cocaine
Procedure: Test agents were tested for ovicidal activity by dipping groups of 10-50 Manducca eggs in drug solutions for 60 seconds and then determining the percentage of eggs which produced viable larvae. Alternatively, the eggs may be sprayed with the test agent and then placed on artificial media to hatch. A compound with active ovicidal activity was one which decreased the percentage of eggs hatched, relative to control.

[3] = tested on: firefly lantern; experiment: Firefly lantern assay (OA-stimulated light emission); format: in vivo, P. pyralis; settings: fixed dose of cocaine injected simultaneously with OA into isolated firefly tails; zero Ca++/high Mn++
Text: To measure the effects of drugs on firefly light emission, an isolated tail (terminal 3 abdominal segments containing the light organ) of a fresh adult P. pyralis male was mounted on a […] stainless steel needle and placed at the focal point of an optical system connected to a photometer-photomultiplier-chart recorder combination (see Nathanson, J. A., Characterization of octopamine-sensitive adenylate cyclase: Development of a potent and selective class of octopamine-2 receptor agonists with toxic effects in insects, Proc. Natl. Acad. Sci. U.S.A. 82: 599-603 (1985)). Drug (dissolved in insect saline, see Carlson, A.D., Effect of adrenergic drugs on the lantern of the larvae of the Photinus firefly, J. Exp. Biol. 48: 381-387 (1968)) was injected (3-5 μl) into the abdominal cavity dorsal to the lantern and light emission was recorded for 45 minutes or until it peaked, following which the next (larger) dose of drug was injected. In the case of animals injected with drugs other than octopamine, following the last dose, […] of octopamine (a maximally effective dose) was injected. Light production is expressed as radiance, each unit approximately equal to 1.6 nanowatts, as measured in a solid angle of 0.033 steradiants. […]

[4] = tested on: mosquito larvae; experiment: Antilarval activity on mosquito larvae; format: in vivo
Procedure: Five to ten 2-5-day old mosquito larvae, reared from eggs, were placed in small bottles containing 3 ml of water, 2 ml of air space, and a perforated cap open to the air. The compound of interest was dissolved in water or appropriate solvent and added to make a final concentration of from 0.00001 to 1%. The bottles were capped and observed at daily intervals for the number of living larvae, pupae, and emerging adults. After two weeks, the final number of adults emerging as a percentage, relative to control, is plotted as a function of drug concentration.

[5] = tested on: octopamine reuptake transporter; format: cell-based, Blaberus; settings: 100 μM cocaine; ±S.E.M. of triplicate determinations; control 13.6±1.7
[6] = tested on: octopamine reuptake transporter; format: biochemical, cockroach
[7] = tested on: Gs -coupled OA receptors; settings: Manduca, a sensitive species; cited from earlier work
[8] = tested on: adenylate cyclase; settings: cockroach, a resistant species; cited from earlier work

Row | Compound | % leaf remaining [1] [%] | RANK ORDER ANTIFEEDING EFFECT IN MANDUCA [1] | antifeeding effect [1] | further results
1 | 1-(2-[bis-(4-fluorophenyl)methoxy]ethyl)-4-(3-phenyl-2-propenyl)piperazine [GBR 12909] | ~95 | GBR > COC = DMI = AMT > DSP = XYL = |  | 
2 | CCN(CCCl)Cc1ccccc1Br [DSP-4] | ~100 | GBR > COC = DMI = AMT > DSP = XYL = |  | 
3 | CN1CCC(=C2c3ccccc3C=Cc3ccccc32)CC1 [cyproheptadine] | ~55 |  |  | 
4 | CCN(CC)CCOC(=O)c1ccc(N)cc1 [procaine] |  |  | only lidocaine showed any activity | 
5 | COC(=O)C1=CC[C@@H]2CC[C@H]1N2C [Ecgonidine methyl ester mesylate, (1 R)-8-methyl-8-azabicyclo[3,2,1]oct-2-ene-2-carboxylic acid methyl ester mesylate] |  |  | no antifeeding effect | 
6 | CN(C)CCC=C1c2ccccc2CCc2ccccc21 [AMT, amitriptyline] | ~100 | GBR > COC = DMI = AMT > DSP = XYL = |  | 
7 | CNCCCN1c2ccccc2CCc2ccccc21 [DMI, desmethylimipramine] | ~80 | GBR > COC = DMI = AMT > DSP = XYL = |  | 
8 | OC1(c2ccc(Cl)cc2)c2ccccc2C2=NCCN21 (stereo not drawn) [mazindol] |  | FLUOX >>MAZ | no antifeeding activity | 
9 | NCCc1ccc(O)c(O)c1 [DA, dopamine] |  |  | no antifeeding effects | antifeeding effect of addition to cocaine [1]: no further increase in antifeeding effect
10 | CN1[C@H]2CC[C@@H]1[C@@H](C(=O)O)[C@H](O)C2 [Ecgonine hydrochloride, (-)-beta-hydroxy-1-alpha-H, 5-alpha-H-tropane-2-beta-carboxlic acid hydrochloride] |  |  | no antifeeding effect | 
11 | NCCc1c[nH]c2ccc(O)cc12 [5-HT, serotonin] |  |  |  | antifeeding effect compared to OA [1]: significantly weaker than OA
12 | COC(=O)[C@H]1[C@@H](OC(=O)c2ccccc2)C[C@@H]2CC[C@H]1N2C [cocaine] |  | GBR > COC = DMI = AMT > DSP = XYL = |  | behavior of larvae on sprayed leaves [1]: marked behavioral abnormalities; time after which animals died [1]: 48 to 72 h; percent dead ova [2]: greater than 95%; leftward shift in the OA dose-response curve (factor) [3]: about 10; percent larvae surviving to mature adulthood ([4]; 0.01% cocaine in water): approximately 50%; adults produced ([4]; 0.1% cocaine in water): no adults were produced; total uptake of octopamine [5]: 9.6 ±1.4 pmol/mg protein; inhibition of sodium-dependent octopamine uptake ([6]; 10 μM cocaine): about 25%; inhibition of sodium-dependent octopamine uptake ([6]; 100 μM cocaine): about 68%
13 | CNCCC(Oc1ccc(C(F)(F)F)cc1)c1ccccc1 (stereo not drawn) [fluoxetine] | ~85 | FLUOX >>MAZ |  | 
14 | CCN(CC)CC(=O)Nc1c(C)cccc1C [lidocaine] |  |  |  | antifeeding inhibition [1]: 15%
15 | NC[C@H](O)c1ccc(O)c(O)c1 [NE, norepinephrine] |  |  |  | antifeeding effect compared to OA [1]: significantly weaker than OA
16 | Cc1cc(Cl)ccc1N=CN [DDCDM, didemethylchlordimeform] |  |  |  | potency relative to OA (full OA agonist) [7]: 20 fold; potency in activating adenylate cyclase relative to OA [8]: much weaker than OA

Source: US5366975A, “Invertebrate phenylethanolamine transporter and the use thereof” (priority 1992, dated 1994)
